# Source: patent US20120055467A1, “METERED-DOSE INHALER AND METHOD OF USING THE SAME” (CHIESI FARMACEUTICI S.P.A., priority 2010, published 2012)
# Tests used:
# [1] = Plume duration measured with in-line PC microphone, dual orifice actuator; type: physicochemical; conditions: Ex 8, individual can
# Protocol: For Example 8, plume duration was measured using an in-line PC microphone in conjunction with Audacity 1.2.6 software.
# Formulation combinations 17a-18a and 17b-18b are fired through the dual orifice actuator, as shown at 121 in FIG. 17B. Plume duration was measured for the simultaneous actuation of two 25 μL valves and two 63 μL valves and compared with plume duration for the individual cans. […] The two formulation combinations were: […]
# [2] = Andersen Cascade Impactor (ACI) evaluation of pMDI spray drug delivery characteristics; type: physicochemical
# Protocol: Spray characteristics of the system were evaluated by an Andersen cascade impactor fitted with a USP throat (App. 1, USP 33). […] This was repeated twice. Pre- and post-shot weights were recorded. […] The solutions were analysed by using a UPLC/MS (Ultra Performance Liquid Chromatography/Mass Spectrometry) system for the determination of the drug deposition.
# [3] = Ex 1, Dual MDI, Formulations 1+2, single 0.22 mm actuator orifice, mean, n=3
# [4] = Ex 1, Dual MDI, Formulations 1+2, single 0.30 mm actuator orifice, mean, n=3
# [5] = Ex 1, Standard MDI, single can, 0.22 mm actuator orifice, mean, n=3
# [6] = Ex 1, Standard MDI, single can, 0.30 mm actuator orifice, mean, n=3
# [7] = Ex 2/3, Standard MDI, single can, 0.22 mm orifice, mean, n=3
# [8] = Ex 2, Dual MDI, Formulations 3+4, single 0.22 mm orifice, mean, n=2
# [9] = Ex 4, Dual-MDI, Formulation 6 + Formulation 7 (HFA 134a), single 0.22 mm orifice, mean, n=2
# [10] = Ex 4, Standard MDI, high ethanol (26% w/w) BDP 100 μg, 0.22 mm orifice, mean, n=2
# [11] = Ex 6, dual can, BDP 25 μL + BUD 100 μL, single 0.22 mm orifice, mean, n=2
# [12] = Ex 6, dual can, BDP 50 μL + BUD 50 μL, single 0.22 mm orifice, mean, n=2
# [13] = Ex 6, dual can, BDP 100 μL + BUD 25 μL, single 0.22 mm orifice, mean, n=2
# [14] = Ex 6, single can, 50 μg dose, metered volume 25 μL, 0.22 mm actuator, mean, n=2
# [15] = Ex 6, single can, 50 μg dose, metered volume 50 μL, 0.22 mm actuator, mean, n=2
# [16] = Ex 6, single can, 50 μg dose, metered volume 100 μL, 0.22 mm actuator, mean, n=2
# [17] = Ex 7, Dual can, Formulations 15+16 simultaneously, dual orifice actuator, mean, n=2
# [18] = Ex 7, Single can through dual orifice actuator, mean, n=2
# [19] = Ex 9, Dual can, Formulations 17a+18a simultaneously, dual orifice actuator, mean, n=2
# [20] = Ex 9, Single can through dual orifice actuator, mean, n=2
# [21] = Ex 11, Dual can single orifice, Formulations 9+12, 0.30 mm orifice, mean, n=2
# [22] = Ex 11, Single reservoir conventional MDI, 50/50, 0.30 mm orifice, mean, n=2
# [23] = Ex 19, dual reservoir-single orifice prototype (FIG. 14B)
# [24] = Ex 20, triple reservoir-single orifice prototype (FIG. 16B)
compound,measurement,setting,value
"CCC(=O)OCC(=O)[C@@]1(OC(=O)CC)[C@@H](C)C[C@H]2[C@@H]3CCC4=CC(=O)C=C[C@]4(C)[C@@]3(Cl)[C@@H](O)C[C@@]21C [BDP, Beclometasone dipropionate]",Plume duration,"[1]; valve size 25 μL (Formulation 18a BDP upright, 17a budesonide inverted)",0.317 s
same,Plume duration,"[1]; valve size 63 μL (Formulation 18b BDP upright, 17b budesonide inverted)",0.545 s
same,Delivered Dose,"[2]; Ex 1, Dual MDI, Formulations 1+2 (each BDP 50 μg/25 μl, 13% ethanol, 1.3% glycerol) mixed, single 0.22 mm actuator orifice, mean, n=3",99.3 µg
same,FPD ≦ 5 μm,[2]; [3],44.6 µg
same,FPF,[2]; [3],45.0%
same,MMAD,[2]; [3],2.9 μm
same,Delivered Dose,[2]; [4],95.6 µg
same,FPD ≦ 5 μm,[2]; [4],27.1 µg
same,FPF,[2]; [4],28.3%
same,MMAD,[2]; [4],3.0 μm
same,Delivered Dose,"[2]; Ex 1, Standard MDI, single can BDP 100 μg/50 ul, 13% ethanol, 1.3% glycerol, 0.22 mm actuator orifice, mean, n=3",89.8 µg
same,FPD ≦ 5 μm,[2]; [5],41.9 µg
same,FPF,[2]; [5],46.6%
same,MMAD,[2]; [5],3.0 μm
same,Delivered Dose,[2]; [6],89.1 µg
same,FPD ≦ 5 μm,[2]; [6],26.2 µg
same,FPF,[2]; [6],29.4%
same,MMAD,[2]; [6],3.3 μm
same,Delivered Dose,"[2]; Ex 2/3, Standard MDI, single can (BDP 100 μg/50 μl or formoterol fumarate 6 μg/50 μl), 0.22 mm orifice, mean, n=3",99.3 µg
same,FPD ≦ 5 μm,[2]; [7],44.6 µg
same,FPF,[2]; [7],45.0%
same,MMAD,[2]; [7],2.9 μm
same,Delivered Dose,"[2]; Ex 2, Dual MDI, Formulation 3 (formoterol fumarate 6 μg/25 μl) + Formulation 4 (BDP 100 μg/25 μl, glycerol) mixed, single 0.22 mm orifice, mean, n=2",97.9 µg
same,FPD ≦ 5 μm,[2]; [8],52.5 µg
same,FPF,[2]; [8],53.6%
same,MMAD,[2]; [8],2.5 μm
same,Delivered Dose,"[2]; Ex 4, Dual-MDI, Formulation 6 (BDP 100 μg/25 μl, 26% ethanol) + Formulation 7 (100% HFA 134a, 25 μl), single 0.22 mm orifice, mean, n=2",86.4 µg
same,FPD ≦ 5 μm,[2]; [9],41.1 µg
same,FPF,[2]; [9],47.5%
same,MMAD,[2]; [9],2.7 μm
same,FPD ≦ 5 μm,[2]; [10],26.7 µg
same,FPF,[2]; [10],26.5%
same,MMAD,[2]; [10],3.5 μm
same,Delivered Dose,"[2]; Ex 4, Standard MDI, single can BDP 100 μg/25 μl, 26% w/w ethanol, 1.3% glycerol, 0.22 mm orifice, mean, n=2",100.6 µg
same,Delivered Dose,[2]; [11],49.4 µg
same,FPD ≦ 5 μm,[2]; [11],18.5 µg
same,FPF,[2]; [11],37.3%
same,MMAD,[2]; [11],2.6 μm
same,Delivered Dose,[2]; [12],38.2 µg
same,FPD ≦ 5 μm,[2]; [12],16.8 µg
same,FPF,[2]; [12],44.1%
same,MMAD,[2]; [12],1.9 μm
same,Delivered Dose,[2]; [13],45.5 µg
same,FPD ≦ 5 μm,[2]; [13],18.6 µg
same,FPF,[2]; [13],40.8%
same,MMAD,[2]; [13],1.8 μm
same,MMAD,"[2]; Ex 6, single can configuration, 0.22 mm actuator, across metered volumes 25-100 μL",1.1-1.2 μm
same,Delivered Dose,"[2]; Ex 6, single can, 50 μg dose, metered volume 25 μL (Formulation 9 / 12), 0.22 mm actuator, mean, n=2",52.0 µg
same,FPD ≦ 5 μm,[2]; [14],31.1 µg
same,FPF,[2]; [14],59.8%
same,MMAD,[2]; [14],1.2 μm
same,Delivered Dose,"[2]; Ex 6, single can, 50 μg dose, metered volume 50 μL (Formulation 10 / 13), 0.22 mm actuator, mean, n=2",45.6 µg
same,FPD ≦ 5 μm,[2]; [15],24.7 µg
same,FPF,[2]; [15],54.0%
same,MMAD,[2]; [15],1.2 μm
same,Delivered Dose,"[2]; Ex 6, single can, 50 μg dose, metered volume 100 μL (Formulation 11 / 14), 0.22 mm actuator, mean, n=2",48.8 µg
same,FPD ≦ 5 μm,[2]; [16],19.2 µg
same,FPF,[2]; [16],39.4%
same,MMAD,[2]; [16],1.1 μm
same,Delivered Dose,"[2]; Ex 7, Dual can, Formulations 15+16 (both with glycerol, 50 μg/25 μl) fired simultaneously through dual orifice actuator (0.22 mm), mean, n=2",41.5 µg
same,FPD ≦ 5 μm,[2]; [17],12.7 µg
same,FPF,[2]; [17],30.6%
same,MMAD,[2]; [17],2.5 μm
same,FPD ≦ 5 μm,[2]; [18],17.0 µg
same,FPF,[2]; [18],47.2%
same,MMAD,[2]; [18],2.3 μm
same,Delivered Dose,"[2]; Ex 7, Single can, fired individually through dual orifice actuator (0.22 mm), Formulation 15 inverted, Formulation 16 upright, mean, n=2",36.0 µg
same,Delivered Dose,"[2]; Ex 9, Dual can, Formulation 17a (budesonide, glycerol) + 18a (BDP, no glycerol) simultaneously through dual orifice actuator, mean, n=2",40.8 µg
same,FPD ≦ 5 μm,[2]; [19],12.7 µg
same,FPF,[2]; [19],31.1%
same,MMAD,[2]; [19],1.5 μm
same,FPD ≦ 5 μm,[2]; [20],16.2 µg
same,FPF,[2]; [20],55.8%
same,MMAD,[2]; [20],0.9 μm
same,Delivered Dose,"[2]; Ex 9, Single can, fired individually through dual orifice actuator, Formulation 17a inverted, 18a upright (50 μg/25 μL), mean, n=2",29.1 µg
same,Metered Dose,"[2]; Ex 11, Dual can single orifice, Formulation 9 (BDP 50/25) + Formulation 12 (budesonide 50/25, glycerol), 0.30 mm orifice, mean, n=2",59.5 µg
same,Delivered Dose,[2]; [21],55.2 µg
same,FPD,[2]; [21],16.3 µg
same,FPF,[2]; [21],29.5%
same,MMAD,[2]; [21],2.8 μm
same,Metered Dose,"[2]; Ex 11, Single reservoir conventional MDI, 50 μg/50 μl (Formulation 10 / 13), 0.30 mm orifice, mean, n=2",52.7 µg
same,Delivered Dose,[2]; [22],47.1 µg
same,FPD,[2]; [22],16.6 µg
same,FPF,[2]; [22],35.2%
same,MMAD,[2]; [22],1.3 μm
same,MMAD,"[2]; Ex 13, BDP formulation 25 μl delivered simultaneously with 100 μl budesonide formulation (glycerol), single 0.30 mm orifice",3.1 μm
same,MMAD,"[2]; Ex 13, conventional single reservoir MDI, 0.30 mm orifice",1.2 μm
same,MMAD,"[2]; Ex 14a/15, comparative, conventional single reservoir MDI, 0.22 mm orifice, 50 μl valves",1.3 μm
same,MMAD,"[2]; Ex 14a/15, dual reservoir-dual orifice, impingement angle 60°, orifice diameter 0.25 mm, separation distance 6.0 mm",2.3 μm
same,actuator deposition,"[2]; Ex 14a, 15° impingement, 6.0 mm separation, stated comparable to the standard actuator",6.1 µg
same,MMAD,"[2]; Ex 14a, dual reservoir-dual orifice, Formulations 9+12, impingement angle 60°, orifice diameter 0.25 mm, separation distance 17.5 mm",2.0 μm
same,MMAD,"[2]; Ex 14a, dual reservoir-dual orifice, impingement angle 15°, orifice diameter 0.25 mm, separation distance 6.0 mm",1.8 μm
same,MMAD,"[2]; Ex 14a, dual reservoir-dual orifice, impingement angle 60°, orifice diameter 0.25 mm, separation distance 9.0 mm",2.1 μm
same,MMAD,"[2]; Ex 14a, dual reservoir-dual orifice, impingement angle 60°, orifice diameter 0.30 mm, separation distance 2.0 mm",1.9 μm
same,MMAD,"[2]; Ex 15, dual reservoir, Formulations 9+12 through a single 0.30 mm diameter orifice",2.8 μm
same,Delivered Dose,[2]; [23],67.6 µg
same,FPD,[2]; [23],30.2 µg
same,FPF,[2]; [23],44.7%
same,MMAD,[2]; [23],1.3 μm
same,Metered Dose,"[2]; Ex 19, dual reservoir-single orifice prototype (FIG. 14B), BDP/Formoterol 100/6 μg/25 μl + glycopyrronium bromide 12.5 μg/25 μl",92.8 µg
same,Delivered Dose,[2]; [24],60.8 µg
same,FPD,[2]; [24],21.2 µg
same,FPF,[2]; [24],34.9%
same,MMAD,[2]; [24],1.4 μm
same,Metered Dose,"[2]; Ex 20, triple reservoir-single orifice prototype (FIG. 16B), BDP/Formoterol + glycopyrronium bromide + budesonide 50 μg/25 μl",85.9 µg
